Results from ChEMBL document CHEMBL5724914, “Linking interpersonal differences in gut microbiota composition and drug biotransformation activity” (2024).

Assays:
[1] = The drug is tested on Z-003 corresponding to pig gut metagenome with ENA study accession number: PRJEB37062 and ENA sample accession number: ERS12561803 for biotransformation under anaerobic condition. The drug concentrations were measured over 9 timepoints collected between 0 and 24 hours of incubation by liquid-chromatography-coupled mass spectrometry (LC–MS); settings: 2 µM
[2] = human gut metagenome, 24 h, 2 µM
[3] = The drug is tested on Z-029 corresponding to rat gut metagenome with ENA study accession number: PRJEB37062 and ENA sample accession number: ERS12561828 for biotransformation under anaerobic condition. The drug concentrations were measured over 9 timepoints collected between 0 and 24 hours of incubation by liquid-chromatography-coupled mass spectrometry (LC–MS); settings: 2 µM
[4] = human gut metagenome, 24 h, 2 µM; remark: listed apart in the source
[5] = human gut metagenome, 24 h, 2 µM; remark: listed apart in the source
[6] = The drug is tested on Z-027 corresponding to metagenome with ENA study accession number: PRJEB37062 and ENA sample accession number: ERS12561826 for biotransformation under anaerobic condition. The drug concentrations were measured over 9 timepoints collected between 0 and 24 hours of incubation by liquid-chromatography-coupled mass spectrometry (LC–MS); settings: 2 µM
[7] = The drug is tested on WLS-077 corresponding to human gut metagenome with ENA study accession number: PRJEB37062 and ENA sample accession number: ERS12561750 for biotransformation under anaerobic condition. The drug concentrations were measured over 9 timepoints collected between 0 and 24 hours of incubation by liquid-chromatography-coupled mass spectrometry (LC–MS); settings: 2 µM
[8] = human gut metagenome, 24 h, 2 µM; remark: listed apart in the source
[9] = The drug is tested on Z-028 corresponding to mouse gut metagenome with ENA study accession number: PRJEB37062 and ENA sample accession number: ERS12561827 for biotransformation under anaerobic condition. The drug concentrations were measured over 9 timepoints collected between 0 and 24 hours of incubation by liquid-chromatography-coupled mass spectrometry (LC–MS); settings: 2 µM
[10] = The drug is tested on WLS-098 corresponding to human gut metagenome with ENA study accession number: PRJEB37062 and ENA sample accession number: ERS12561754 for biotransformation under anaerobic condition. The drug concentrations were measured over 9 timepoints collected between 0 and 24 hours of incubation by liquid-chromatography-coupled mass spectrometry (LC–MS); settings: 2 µM
[11] = human gut metagenome, 24 h, 2 µM; remark: listed apart in the source
[12] = human gut metagenome, 24 h, 2 µM; remark: listed apart in the source
[13] = human gut metagenome, 24 h, 2 µM; remark: listed apart in the source
[14] = The drug is tested on WLS-006 corresponding to human gut metagenome with ENA study accession number: PRJEB37062 and ENA sample accession number: ERS12561741 for biotransformation under anaerobic condition. The drug concentrations were measured over 9 timepoints collected between 0 and 24 hours of incubation by liquid-chromatography-coupled mass spectrometry (LC–MS); settings: 2 µM
[15] = The drug is tested on Z-018 corresponding to pig gut metagenome with ENA study accession number: PRJEB37062 and ENA sample accession number: ERS12561817 for biotransformation under anaerobic condition. The drug concentrations were measured over 9 timepoints collected between 0 and 24 hours of incubation by liquid-chromatography-coupled mass spectrometry (LC–MS); settings: 2 µM
[16] = The drug is tested on Z-026 corresponding to metagenome with ENA study accession number: PRJEB37062 and ENA sample accession number: ERS12561825 for biotransformation under anaerobic condition. The drug concentrations were measured over 9 timepoints collected between 0 and 24 hours of incubation by liquid-chromatography-coupled mass spectrometry (LC–MS); settings: 2 µM
[17] = The drug is tested on WLS-240 corresponding to human gut metagenome with ENA study accession number: PRJEB37062 and ENA sample accession number: ERS12561773 for biotransformation under anaerobic condition. The drug concentrations were measured over 9 timepoints collected between 0 and 24 hours of incubation by liquid-chromatography-coupled mass spectrometry (LC–MS); settings: 2 µM
[18] = The drug is tested on Z-007 corresponding to rat gut metagenome with ENA study accession number: PRJEB37062 and ENA sample accession number: ERS12561807 for biotransformation under anaerobic condition. The drug concentrations were measured over 9 timepoints collected between 0 and 24 hours of incubation by liquid-chromatography-coupled mass spectrometry (LC–MS); settings: 2 µM
[19] = The drug is tested on WLS-170 corresponding to human gut metagenome with ENA study accession number: PRJEB37062 and ENA sample accession number: ERS12561762 for biotransformation under anaerobic condition. The drug concentrations were measured over 9 timepoints collected between 0 and 24 hours of incubation by liquid-chromatography-coupled mass spectrometry (LC–MS); settings: 2 µM
[20] = The drug is tested on WLS-310 corresponding to human gut metagenome with ENA study accession number: PRJEB37062 and ENA sample accession number: ERS12561785 for biotransformation under anaerobic condition. The drug concentrations were measured over 9 timepoints collected between 0 and 24 hours of incubation by liquid-chromatography-coupled mass spectrometry (LC–MS); settings: 2 µM
Note: call rule not given here.

| SMILES | Bacterial Biotransformation [1] | Bacterial Biotransformation [2] | Bacterial Biotransformation [3] | Bacterial Biotransformation [4] | Bacterial Biotransformation [5] | Bacterial Biotransformation [6] | Bacterial Biotransformation [7] | Bacterial Biotransformation [8] | Bacterial Biotransformation [9] | Bacterial Biotransformation [10] | Bacterial Biotransformation [11] | Bacterial Biotransformation [12] | Bacterial Biotransformation [13] | Bacterial Biotransformation [14] | Bacterial Biotransformation [15] | Bacterial Biotransformation [16] | Bacterial Biotransformation [17] | Bacterial Biotransformation [18] | Bacterial Biotransformation [19] | Bacterial Biotransformation [20] |
| --- | --- | --- | --- | --- | --- | --- | --- | --- | --- | --- | --- | --- | --- | --- | --- | --- | --- | --- | --- | --- |
| COCCc1ccc(OCC(O)CNC(C)C)cc1.COCCc1ccc(OCC(O)CNC(C)C)cc1.O=C(O)C(O)C(O)C(=O)O (stereo not given) [METOPROLOL TARTRATE] | Compound metabolized | Compound NOT metabolized | Compound NOT metabolized | Compound NOT metabolized | Compound metabolized | Compound NOT metabolized | Compound NOT metabolized | Compound metabolized | Compound NOT metabolized | Compound metabolized | Compound NOT metabolized | Compound metabolized | Compound NOT metabolized | Compound NOT metabolized | Compound NOT metabolized | Compound NOT metabolized | Compound metabolized | Compound NOT metabolized | Compound metabolized | Compound metabolized |
| COc1c(C)c2c(c(O)c1C/C=C(\C)CCC(=O)OCCN1CCOCC1)C(=O)OC2 [MYCOPHENOLATE MOFETIL] | Compound metabolized | Compound metabolized | Compound metabolized | Compound metabolized | Compound metabolized | Compound metabolized | Compound metabolized | Compound metabolized | Compound metabolized | Compound metabolized | Compound metabolized | Compound metabolized | Compound metabolized | Compound metabolized | Compound metabolized | Compound metabolized | Compound metabolized | Compound metabolized | Compound metabolized | Compound metabolized |
| CCN(CC)CCOC(=O)C(Cc1cccc2ccccc12)CC1CCCO1.O=C(O)C(=O)O (stereo not given) [NAFRONYL OXALATE] | Compound metabolized | Compound metabolized | Compound NOT metabolized | Compound NOT metabolized | Compound metabolized | Compound NOT metabolized | Compound metabolized | Compound metabolized | Compound metabolized | Compound metabolized | Compound NOT metabolized | Compound NOT metabolized | Compound metabolized | Compound metabolized | Compound metabolized | Compound NOT metabolized | Compound metabolized | Compound NOT metabolized | Compound metabolized | Compound metabolized |
| CCc1nn(CCCN2CCN(c3cccc(Cl)c3)CC2)c(=O)n1CCOc1ccccc1 [NEFAZODONE] | Compound NOT metabolized | Compound metabolized | Compound NOT metabolized | Compound metabolized | Compound NOT metabolized | Compound NOT metabolized | Compound NOT metabolized | Compound metabolized | Compound NOT metabolized | Compound metabolized | Compound metabolized | Compound NOT metabolized | Compound NOT metabolized | Compound metabolized | Compound NOT metabolized | Compound NOT metabolized | Compound metabolized | Compound NOT metabolized | Compound metabolized | Compound metabolized |
| CN1CCOC(c2ccccc2)c2ccccc2C1 (stereo not given) [NEFOPAM] | Compound NOT metabolized | Compound metabolized | Compound NOT metabolized | Compound NOT metabolized | Compound metabolized | Compound NOT metabolized | Compound NOT metabolized | Compound metabolized | Compound NOT metabolized | Compound metabolized | Compound NOT metabolized | Compound NOT metabolized | Compound metabolized | Compound metabolized | Compound NOT metabolized | Compound NOT metabolized | Compound NOT metabolized | Compound NOT metabolized | Compound NOT metabolized | Compound NOT metabolized |
